The source of these data is patent US5043332A, “Novel 11β-substituted -19-nor-steriods” (priority 1981, dated 1991).

What is called inhibition is the change of the read-out against control, counted positive when it falls.

The test system of test [1] is thymocytes of surrenalectomized rats. The test is described as follows: Antiglucocorticoidal activity, incorporation of tritiated uridine in thymocytes. The format is cell-based. The settings on record: for inhibition at 0.1 µM: 5 × 10^-8 M dexamethasone + test product 10^-7 M; for inhibition at 0.01 µM: 5 × 10^-8 M dexamethasone + test product 10^-8 M; for opposition to the effect of dexamethasone on tritiated uridine incorporation (in words): with 5×10^-8 M dexamethasone. As for the experimental part:
III. Antiglucocorticoidal Activity
The test used was that of Dausse et al [Molecular Pharmacology, Vol. 13 (1977), p. 948-955] entitled "The relationship between glucocorticoid structure and effects upon thymocytes" for […] thymocytes. The thymocytes of surrenalectomized rats were incubated at 37° C. for 3 hours in a nutritive medium containing 5×10^-8 M of dexamethasone in the presence or absence of the test compound at different concentrations. Tritiated uridine was added and incubation was continued for one hour. The incubates were cooled and treated with a 5% trifluoroacetic acid solution and the mixture was filtered with Whatman GF/A paper. The filter was washed 3 times with a 5% trifluoroacetic acid solution and retained radioactivity on the filter was determined.

In test [2] the target is T1, Androgen receptor of prostate of rats (Rattus norvegicus, UniProt P15207).
T1 construct: The prostates were removed, weighed and homogenized at 0° C; from tissue; host or cells: rat prostate, 105,000 g supernatant (castrated male Sprague-Dawley rats)
T1 sequence (P15207 1-902): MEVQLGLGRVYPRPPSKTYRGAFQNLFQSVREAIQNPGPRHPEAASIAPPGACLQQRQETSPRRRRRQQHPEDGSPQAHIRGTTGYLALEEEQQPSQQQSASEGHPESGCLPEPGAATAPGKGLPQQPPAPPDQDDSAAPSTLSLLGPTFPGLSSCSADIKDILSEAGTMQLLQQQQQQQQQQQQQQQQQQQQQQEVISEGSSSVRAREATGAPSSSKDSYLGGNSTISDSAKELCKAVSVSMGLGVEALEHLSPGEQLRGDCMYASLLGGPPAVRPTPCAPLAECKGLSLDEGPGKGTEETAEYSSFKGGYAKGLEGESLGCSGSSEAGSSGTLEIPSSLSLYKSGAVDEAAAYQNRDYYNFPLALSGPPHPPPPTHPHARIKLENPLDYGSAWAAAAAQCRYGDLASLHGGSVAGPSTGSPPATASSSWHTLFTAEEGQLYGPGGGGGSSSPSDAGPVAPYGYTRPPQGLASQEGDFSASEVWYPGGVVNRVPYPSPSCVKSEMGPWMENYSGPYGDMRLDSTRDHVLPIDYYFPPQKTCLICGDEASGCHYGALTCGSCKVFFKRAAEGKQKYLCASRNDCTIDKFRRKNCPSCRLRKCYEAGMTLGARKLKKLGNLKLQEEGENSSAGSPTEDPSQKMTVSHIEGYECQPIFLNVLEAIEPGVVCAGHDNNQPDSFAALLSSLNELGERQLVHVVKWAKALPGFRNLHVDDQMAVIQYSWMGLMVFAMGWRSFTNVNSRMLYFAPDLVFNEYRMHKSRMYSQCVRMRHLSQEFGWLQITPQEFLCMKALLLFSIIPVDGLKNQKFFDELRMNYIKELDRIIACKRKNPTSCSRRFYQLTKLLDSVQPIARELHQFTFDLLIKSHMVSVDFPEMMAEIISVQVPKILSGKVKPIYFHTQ
Nature of the test: Androgen receptor binding (displacement of tritiated product P). The protocol: B. Androgen receptor of prostate of rats
Male Sprague-Dawley EPOS rats weighing of 160 to 200 g were castrated and 24 hours later, the animals were killed. The prostates were removed, weighed and homogenized at 0° C. with a polytetrafluoroethylene-glass Potter with a buffered TS solution (Tris, 10 mM, 0.25M Saccharose, HCl-pH of 7.4) using 1 g of tissue per 5 ml of TS. The homogenate was then ultracentrifuged at 105,000 g for 60 […] (T) of product P or 17α-methyl-Δ^4,9,11 -estratriene-17β-ol-3-one in the presence of increasing concentration (0-1,000×10^-9 M) of either cold P, cold testosterone or the test compound. The concentration of tied tritiated (B) was measured for each incubate by the technique of adsorption on carbon-dextran.
(§1) The calculation of the relative affinity of […] (ARL) was identical for all of the above receptor tests. One traced the following two curves: the percentage of tied tritiated hormone B/T as a function of the logarithm of the cold hormone concentration and B/T as a function of the logarithm of the concentration of the cold test product. One determined the line of the equation. [formula]
(§2) The intersection of the I50 line and the curves permits one to determine the concentrations of the cold hormone of the reference (CH) and the cold test compound (CX) which inhibit by 50% the tieing of tritiated hormone with the receptor. The relative affinity of tieing (ARL) of the test product was determined by the equation: [formula]

The target in test [3] is T2, Gluocorticoid receptor of thymus of rats (Rattus norvegicus, UniProt P06536).
T2 construct: The thymus were removed and homogenized at 0° C; from tissue; host or cells: rat thymus, 105,000 g supernatant (adrenalectomized male Sprague-Dawley rats)
T2 sequence (P06536 1-795): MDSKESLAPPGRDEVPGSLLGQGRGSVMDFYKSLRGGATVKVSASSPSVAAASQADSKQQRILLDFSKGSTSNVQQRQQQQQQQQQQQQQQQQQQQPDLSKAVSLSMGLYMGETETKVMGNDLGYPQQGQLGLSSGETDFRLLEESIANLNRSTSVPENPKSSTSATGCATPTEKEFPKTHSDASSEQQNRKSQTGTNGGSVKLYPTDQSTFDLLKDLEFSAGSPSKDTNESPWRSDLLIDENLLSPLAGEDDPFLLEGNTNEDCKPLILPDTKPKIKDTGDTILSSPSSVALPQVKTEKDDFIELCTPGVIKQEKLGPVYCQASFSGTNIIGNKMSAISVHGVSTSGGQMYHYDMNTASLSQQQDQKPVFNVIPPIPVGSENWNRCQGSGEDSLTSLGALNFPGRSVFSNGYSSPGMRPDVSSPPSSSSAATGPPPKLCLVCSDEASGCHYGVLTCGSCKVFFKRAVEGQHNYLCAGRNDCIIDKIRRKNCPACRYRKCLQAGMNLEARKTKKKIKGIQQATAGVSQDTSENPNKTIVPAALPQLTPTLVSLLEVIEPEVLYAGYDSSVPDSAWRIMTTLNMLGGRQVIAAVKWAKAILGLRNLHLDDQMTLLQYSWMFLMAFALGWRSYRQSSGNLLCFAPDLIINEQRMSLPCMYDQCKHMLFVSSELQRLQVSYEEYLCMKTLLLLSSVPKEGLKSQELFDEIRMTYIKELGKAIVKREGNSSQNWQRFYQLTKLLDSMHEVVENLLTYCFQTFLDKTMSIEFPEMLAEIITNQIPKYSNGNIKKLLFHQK
Nature of the test: Glucocorticoid receptor binding (displacement of tritiated dexamethasone). Conditions: for affinity for glucocorticoid receptors (in words): conclusion. As for the experimental part: D. Gluocorticoid receptor of thymus of rats
Male Sprague-Dawley EPOS rats weighing 160 to 200 g were surrenalectomized and the animals were killed 4 to 8 days later. The thymus were removed and homogenized at 0° C. in a buffered TS solution of 10 mM, Tris, 0.25M of Saccharose, 2 mM of dithiothreitol HCl for a pH of 7.4 using a polytetrafluoroethylene-glass Potter at a rate of 1 g of tissue per 10 ml of TS. […] The concentration of tied tritiated dexamethasone (B) was measured for each incubate by the adsorption on carbon-dextran technique.
as §1, §2

Setting [4] is: 5 × 10^-8 M dexamethasone + test product 10^-6 M.
[5] abbreviates: Rattus norvegicus, Thymocyte, read-out: % inhibition of effect of Dexamethasone.
[6] abbreviates: second table, incubation 24 H at 0° C.
The mark [7] stands for this setting: second table, incubation 4 H at 0° C.

On to `CC#C[C@]1(OC(C)=O)CC[C@H]2[C@@H]3CCc4cc(O)ccc4[C@H]3[C@@H](c3ccc(N(C)C)cc3)C[C@@]21C` [2 (17 OAc), 11β-(4-dimethylaminophenyl)-17α-(prop-1-ynyl)-17β-acetoxy-Δ^1,3,5(10) -estratriene-3-ol], for which the “% inhibition of effect of Dexamethasone (symbol)” value (shortened to “% inhibition”) in test [1] (setting [4]) is recorded as “* (A dose of 10^-6 M inhibited the effect of dexamethasone totally)”. In addition, the inhibition at 0.1 µM in test [1] (setting [5]) was found to be 76%. Besides, in test [1] (setting [5]), the inhibition at 0.01 µM came out at 24%. The “relative affinity of tieing (ARL), Androgen” value (from here on “relative affinity … Androgen”) in test [2] (incubation 1/2H at 0° C.) and in test [2] (incubation 24 H at 0° C.) was < 0,1 each time. Besides, the “relative affinity of tieing (ARL), Glucocorticoid” value (shortened to “relative affinity … Glucocorticoid”) in test [3] (incubation 4 H at 0° C.) stood at 58; in test [3] (incubation 24 H at 0° C.), 100.
Consider `CC#C[C@]1(O)CC[C@H]2[C@@H]3CCC4=CC(=O)[C@H](C)CC4=C3[C@@H](c3ccc(N(C)C)cc3)C[C@@]21C` [5 (2α), 2α-methyl-11β-(4-dimethylaminophenyl)-17α-(prop-1-ynyl)-Δ^4,9-estradiene-17β-ol-3-one], for which the inhibition at 1 µM in test [1] (Rattus norvegicus, Thymocyte, 5 × 10^-8 M dexamethasone + test product 10^-6 M, read-out: % inhibition of effect of Dexamethasone) stood at 100%. For the same molecule, in test [1] (setting [5]), the inhibition at 0.1 µM came out at 57%. Further, the inhibition at 0.01 µM in test [1] (setting [5]) amounted to 19%. The “relative affinity … Androgen” value in test [2] (incubation 1/2H at 0° C.) is reported as 0,5; in test [2] (incubation 24 H at 0° C.), 0,4. Moreover, the “relative affinity … Glucocorticoid” value in test [3] (incubation 4 H at 0° C.) was found to be 214; in test [3] (incubation 24 H at 0° C.), 255.
On to `CC#C[C@]1(O)CC[C@H]2[C@@H]3CCC4=CC(=O)C(C)(C)CC4=C3[C@@H](c3ccc(N(C)C)cc3)C[C@@]21C` [Example 1, 2,2-dimethyl-11β-(4-dimethylaminophenyl)-17α-(prop-1-ynyl)-Δ^4,9-estradiene-17β-ol-3-one], for which the “% inhibition” value in test [1] (setting [4]) is “* (A dose of 10^-6 M inhibited the effect of dexamethasone totally)”. For the same molecule, in test [1] (setting [5]), the inhibition at 0.1 µM came out at 18% and the inhibition at 0.01 µM came out at 8%. Further, the “opposition to the effect of dexamethasone on tritiated uridine incorporation (in words)” value (from here on “opposition to the effect”) in test [1] is given as “opposed this effect”. Also, in test [3] (incubation 4 H at 0° C.), the “relative affinity … Glucocorticoid” value came out at 97. In addition, the “relative affinity … Glucocorticoid” value in test [3] (incubation 24 H at 0° C.) turned out to be 38.
As for `CC#C[C@]1(O)CC[C@H]2[C@@H]3CCC4=C(CCC(=O)C4)[C@H]3[C@@H](c3ccc(N(C)C)cc3)C[C@@]21C` [Example 10, 11β-(4-dimethylaminophenyl)-17α-(prop-1-ynyl)-Δ^5(10) -estrene-17β-ol-3-one], the “% inhibition” value in test [1] (setting [4]) was “* (A dose of 10^-6 M inhibited the effect of dexamethasone totally)”. In addition, in test [1] (setting [5]), the inhibition at 0.1 µM came to 23% and the inhibition at 0.01 µM came out at 0%. The “opposition to the effect” value in test [1] is on record as “opposed this effect”. Besides, the “relative affinity … Glucocorticoid” value in test [3] (incubation 4 H at 0° C.) is listed as 83. For the same molecule, in test [3] (incubation 24 H at 0° C.), the “relative affinity … Glucocorticoid” value came to 115.
Take `CC#C[C@]1(O)CC[C@H]2[C@@H]3CCC4=CC(=O)CCC4=C3[C@@H](c3ccc(N(C)C)cc3)C[C@@]21C` [Example 19, 11β-[4-(N,N-dimethylamino)-phenyl]-17α-(prop-1-ynyl)-Δ^4,9-estradiene-17β-ol-3-one]: the “opposition to the effect” value in test [1] is on record as “opposed this effect”. In addition, in test [3], the “affinity for glucocorticoid receptors (in words)” value was “very remarkable affinity”.
As to `C[C@]12C[C@H](c3ccc([N+](C)(C)[O-])cc3)[C@]34O[C@]35CCC(=O)C=C5CC[C@H]4[C@@H]1CC[C@@]2(O)C#CCl` [Example 27, N-oxide of 11β-[4-(N,N-dimethylamino)-phenyl]-9α,10α-epoxy-21-chloro-19-nor-17α-Δ^4-pregnene-20-yne-17β-ol-3-one], the “relative affinity … Androgen” value in test [2] (setting [6]) is reported as 2,8. Besides, the “relative affinity … Glucocorticoid” value in test [3] (setting [7]) was 5,3; in test [3] (setting [6]), 6,2.
For `C#C[C@]1(O)CC[C@H]2[C@@H]3CCC4=CC(=O)CCC4=C3[C@@H](c3ccc(N(C)C)cc3)C[C@@]21C` [Example 32, 11β-[4-(N,N-dimethylamino)-phenyl]-17α-ethynyl-Δ^4,9-estradiene-17β-ol-3-one], in test [2] (conclusion), the “affinity for androgen receptors (in words)” value is “slightly moderate affinity”. The “relative affinity … Androgen” value in test [2] (setting [6]) is reported as 68. In test [3], the “affinity for glucocorticoid receptors (in words)” value was “very remarkable affinity”. The entries for the “relative affinity … Glucocorticoid” value in test [3] (setting [7]) and in test [3] (setting [6]) were 279 and 235, respectively.
With `CN(C)c1ccc([C@H]2C[C@@]3(C)[C@@H](CC[C@@]3(O)C#C[Si](C)(C)C)[C@@H]3CCC4=CC(=O)CCC4=C32)cc1` [Example 44, 11β-[4-(N,N-dimethylamino)-phenyl]-21-trimethylsilyl-19-nor-17α-Δ^4,9-pregnadiene-20-yne-17β-ol-3-one], in test [2] (setting [6]), the “relative affinity … Androgen” value is 4,6. The “relative affinity … Glucocorticoid” value is given as 79 in test [3] (setting [7]) and 104 in test [3] (setting [6]).
